The target of this assay is T1, small-conductance Ca2+-activated K+ channels (SK channels, subtype 2) (Homo sapiens, UniProt Q9H2S1).
T1 construct: expressed in transfected cells; host or cells: HEK293
In words: whole-cell patch-clamp of ionic current through SK2 channels in HEK293 cells (SC100). In kind it is cell-based. To be noted: concentration that increases the basal current by 100%; HEK293 cells expressing SK2 channels. Summed up:
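SC100, the concentration doubling basal current (a 100% increase), was taken from SK2 currents recorded by whole-cell patch-clamp in SK2-expressing HEK293 cells.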
On to `FCc1ccn(-c2nc(NC3CCC(F)(F)CC3)cc(OC3COC3)n2)n1` [Compound 285, N-(4,4-difluorocyclohexyl)-2-(3-(fluoromethyl)-1H-pyrazol-1-yl)-6-(oxetan-3-yloxy)pyrimidin-4-amine], for which the SC100 result was “+ (+ means >1 uM)”.
With `Cn1cnc2c(NC3CCC(F)(F)CC3)nc(-n3ccc(CF)n3)cc21` [Compound 286, N-(4,4-difluorocyclohexyl)-6-(3-(fluoromethyl)-1H-pyrazol-1-yl)-1-methyl-1H-imidazo[4,5-c]pyridin-4-amine], the SC100 entry is reported as “+++ (+++ means <200 nM)”.
In the case of `CCOC(=O)N1CC(Oc2cc(NC3CCC(F)(F)CC3)nc(-n3ccc(CF)n3)n2)C1` [Compound 287, ethyl 3-((6-((4,4-difluorocyclohexyl)amino)-2-(3-(fluoromethyl)-1H-pyrazol-1-yl)pyrimidin-4-yl)oxy)azetidine-1-carboxylate], the SC100 result is reported as “++ (++ means 200 nM-1000 nM)”.
In the case of `CCC(=O)N1CC(Oc2cc(NC3CCC(F)(F)CC3)nc(-n3ccc(CF)n3)n2)C1` [Compound 288, 1-(3-((6-((4,4-difluorocyclohexyl)amino)-2-(3-(fluoromethyl)-1H-pyrazol-1-yl)pyrimidin-4-yl)oxy)azetidin-1-yl)propan-1-one], the SC100 result is recorded as “++ (++ means 200 nM-1000 nM)”.
With `CC(=O)N1CC(Oc2cc(NC3CCC(F)(F)CC3)nc(-n3ccc(CF)n3)n2)C1` [Compound 289, 1-(3-((6-((4,4-difluorocyclohexyl)amino)-2-(3-(fluoromethyl)-1H-pyrazol-1-yl)pyrimidin-4-yl)oxy)azetidin-1-yl)ethan-1-one], the SC100 result was “++ (++ means 200 nM-1000 nM)”.
As for `CC(C)C(=O)N1CC(Oc2cc(NC3CCC(F)(F)CC3)nc(-n3ccc(CF)n3)n2)C1` [Compound 290, 1-(3-((6-((4,4-difluorocyclohexyl)amino)-2-(3-(fluoromethyl)-1H-pyrazol-1-yl)pyrimidin-4-yl)oxy)azetidin-1-yl)-2-methylpropan-1-one], the SC100 result is reported as “++ (++ means 200 nM-1000 nM)”.
Under `COC(=O)N1CC(Oc2cc(NC3CCC(F)(F)CC3)nc(-n3ccc(CF)n3)n2)C1` [Compound 291, methyl 3-((6-((4,4-difluorocyclohexyl)amino)-2-(3-(fluoromethyl)-1H-pyrazol-1-yl)pyrimidin-4-yl)oxy)azetidine-1-carboxylate] stands “++ (++ means 200 nM-1000 nM)”; under `CC(C)(C)C(=O)N1CC(Oc2cc(NC3CCC(F)(F)CC3)nc(-n3ccc(CF)n3)n2)C1` [Compound 293, 1-(3-((6-((4,4-difluorocyclohexyl)amino)-2-(3-(fluoromethyl)-1H-pyrazol-1-yl)pyrimidin-4-yl)oxy)azetidin-1-yl)-2,2-dimethylpropan-1-one], “++ (++ means 200 nM-1000 nM)”.
With `CC1CN(c2cc(NC3CCC(F)(F)CC3)nc(-n3ccc(CF)n3)n2)CC(C)O1` (stereo not drawn) [Compound 294, N-(4,4-difluorocyclohexyl)-6-(2,6-dimethylmorpholino)-2-(3-(fluoromethyl)-1H-pyrazol-1-yl)pyrimidin-4-amine], the SC100 result is listed as “++ (++ means 200 nM-1000 nM)”.
Consider `COC(=O)N1CC(Oc2cc(NC3CCC(F)(F)CC3)nc(-n3ccc(C(F)F)n3)n2)C1` [Compound 295, methyl 3-((6-((4,4-difluorocyclohexyl)amino)-2-(3-(difluoromethyl)-1H-pyrazol-1-yl)pyrimidin-4-yl)oxy)azetidine-1-carboxylate], for which the SC100 entry is reported as “++ (++ means 200 nM-1000 nM)”.
Next, `CC(C)OC(=O)N1CC(Oc2cc(NC3CCC(F)(F)CC3)nc(-n3ccc(CF)n3)n2)C1` [Compound 296, isopropyl3-((6-((4,4-difluorocyclohexyl)amino)-2-(3-(fluoromethyl)-1H-pyrazol-1-yl)pyrimidin-4-yl)oxy)azetidine-1-carboxylate]: “++ (++ means 200 nM-1000 nM)”; `COC(=O)N1CCC(Oc2cc(NC3CCC(F)(F)CC3)nc(-n3ccc(CF)n3)n2)C1` (stereo not drawn) [Compound 297, methyl 3-((6-((4,4-difluorocyclohexyl)amino)-2-(3-(fluoromethyl)-1H-pyrazol-1-yl)pyrimidin-4-yl)oxy)pyrrolidine-1-carboxylate]: “++ (++ means 200 nM-1000 nM)”; `CC(C)(C)C(=O)N1CC(Oc2cc(NC3CCC(F)(F)CC3)nc(-n3ccc(C(F)F)n3)n2)C1` [Compound 298, 1-(3-((6-((4,4-difluorocyclohexyl)amino)-2-(3-(difluoromethyl)-1H-pyrazol-1-yl)pyrimidin-4-yl)oxy)azetidin-1-yl)-2,2-dimethylpropan-1-one]: “++ (++ means 200 nM-1000 nM)”.
In the case of `O=C(N1CC(Oc2cc(NC3CCC(F)(F)CC3)nc(-n3ccc(C(F)F)n3)n2)C1)C(F)(F)F` [Compound 299, 1-(3-((6-((4,4-difluorocyclohexyl)amino)-2-(3-(difluoromethyl)-1H-pyrazol-1-yl)pyrimidin-4-yl)oxy)azetidin-1-yl)-2,2,2-trifluoroethan-1-one], the SC100 entry is “++ (++ means 200 nM-1000 nM)”.
Next, `Cc1cc(C)n(Cc2cc(NC3CCC(F)(F)CC3)nc(-n3ccc(CF)n3)n2)n1` [Compound 300, N-(4,4-difluorocyclohexyl)-6-((3,5-dimethyl-1H-pyrazol-1-yl)methyl)-2-(3-(fluoromethyl)-1H-pyrazol-1-yl)pyrimidin-4-amine]: “+ (+ means >1 uM)”; `CC(=O)NCc1cc(NC2CCC(F)(F)CC2)nc(-n2ccc(C(F)F)n2)c1` [Compound 301, N-((2-((4,4-difluorocyclohexyl)amino)-6-(3-(difluoromethyl)-1H-pyrazol-1-yl)pyridin-4-yl)methyl)acetamide]: “++ (++ means 200 nM-1000 nM)”; `FCc1ccn(-c2cc(OC3COC3)cc(NC3CCC(F)(F)CC3)n2)n1` [Compound 302, N-(4,4-difluorocyclohexyl)-6-(3-(fluoromethyl)-1H-pyrazol-1-yl)-4-(oxetan-3-yloxy)pyridin-2-amine]: “++ (++ means 200 nM-1000 nM)”.
Next, `Cc1cn(-c2nc(NC3CCC(F)(F)CC3)cc(OC3COC3)n2)nc1CF` [Compound 304, N-(4,4-difluorocyclohexyl)-2-(3-(fluoromethyl)-4-methyl-1H-pyrazol-1-yl)-6-(oxetan-3-yloxy)pyrimidin-4-amine]: “++ (++ means 200 nM-1000 nM)”; `COC(=O)N1CCC(Oc2cc(NC3CCC(F)(F)CC3)nc(-n3ccc(C(F)F)n3)n2)C1` (stereo not drawn) [Compound 305, methyl 3-((6-((4,4-difluorocyclohexyl)amino)-2-(3-(difluoromethyl)-1H-pyrazol-1-yl)pyrimidin-4-yl)oxy)pyrrolidine-1-carboxylate]: “++ (++ means 200 nM-1000 nM)”.
`COC(=O)N1CCC1COc1cc(NC2CCC(F)(F)CC2)nc(-n2ccc(CF)n2)n1` (stereo not drawn) [Compound 306, methyl 2-(((6-((4,4-difluorocyclohexyl)amino)-2-(3-(fluoromethyl)-1H-pyrazol-1-yl)pyrimidin-4-yl)oxy)methyl)azetidine-1-carboxylate]: the SC100 result was “+ (+ means >1 uM)”.
As to `COC(=O)N1CC(Oc2cc(NC3CCC(F)(F)CC3)nc(-n3ccc(C(C)O)n3)n2)C1` (stereo not drawn) [Compound 307, methyl 3-((6-((4,4-difluorocyclohexyl)amino)-2-(3-(1-hydroxyethyl)-1H-pyrazol-1-yl)pyrimidin-4-yl)oxy)azetidine-1-carboxylate], the SC100 result is on record as “+ (+ means >1 uM)”.

For the origin of these results see patent publication US10774064B2 (Cadent Therapeutics, Inc., priority 2016, dated 2020).
